Results on eight molecules are retold here after ChEMBL document CHEMBL4811216, “Chemotherapy for human schistosomiasis: how far have we come? What's new? Where do we go from here?” (RSC Med Chem, 2020).

In data set [1] the target is T1, Protein deacetylase HDAC6 (Homo sapiens, UniProt Q9UBN7).
T1 sequence (Q9UBN7 whole entry): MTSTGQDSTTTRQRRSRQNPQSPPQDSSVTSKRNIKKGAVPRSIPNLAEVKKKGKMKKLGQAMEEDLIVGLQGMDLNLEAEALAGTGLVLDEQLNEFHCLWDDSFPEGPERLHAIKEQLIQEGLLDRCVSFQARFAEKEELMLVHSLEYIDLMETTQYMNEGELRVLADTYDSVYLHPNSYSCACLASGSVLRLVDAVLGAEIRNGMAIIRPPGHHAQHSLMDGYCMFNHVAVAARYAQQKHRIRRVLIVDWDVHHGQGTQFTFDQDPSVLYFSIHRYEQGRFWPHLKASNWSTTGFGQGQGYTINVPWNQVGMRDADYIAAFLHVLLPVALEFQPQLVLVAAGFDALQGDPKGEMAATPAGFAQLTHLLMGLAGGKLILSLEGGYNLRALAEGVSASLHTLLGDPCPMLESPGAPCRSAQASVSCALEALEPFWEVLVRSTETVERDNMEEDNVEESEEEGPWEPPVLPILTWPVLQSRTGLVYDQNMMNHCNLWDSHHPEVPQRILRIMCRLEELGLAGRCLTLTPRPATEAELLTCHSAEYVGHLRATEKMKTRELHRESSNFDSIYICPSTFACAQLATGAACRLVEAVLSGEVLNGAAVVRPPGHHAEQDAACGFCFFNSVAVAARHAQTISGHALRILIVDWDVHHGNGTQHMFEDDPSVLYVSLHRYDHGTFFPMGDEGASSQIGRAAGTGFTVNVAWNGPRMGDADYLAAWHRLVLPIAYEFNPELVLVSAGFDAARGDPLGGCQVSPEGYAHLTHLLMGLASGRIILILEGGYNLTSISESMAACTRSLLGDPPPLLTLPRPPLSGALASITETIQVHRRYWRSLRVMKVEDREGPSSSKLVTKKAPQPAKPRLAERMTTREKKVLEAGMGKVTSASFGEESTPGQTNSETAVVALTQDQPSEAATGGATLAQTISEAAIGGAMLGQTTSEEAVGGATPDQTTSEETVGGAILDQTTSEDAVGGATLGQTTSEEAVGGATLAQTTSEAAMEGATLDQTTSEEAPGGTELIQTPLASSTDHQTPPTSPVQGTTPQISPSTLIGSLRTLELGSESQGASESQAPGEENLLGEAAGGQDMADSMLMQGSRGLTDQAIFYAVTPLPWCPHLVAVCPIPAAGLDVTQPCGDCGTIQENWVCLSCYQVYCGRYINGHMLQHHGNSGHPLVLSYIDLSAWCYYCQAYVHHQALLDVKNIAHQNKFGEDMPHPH
Description: Inhibition of human HDAC6 using Z-Lys(Ac)-AMC as substrate by fluorimetric method.

Data set [2] addresses T2, HDAC1 (histone deacetylase 1) (Homo sapiens, UniProt Q13547). Briefly: Inhibition of human HDAC1 at 200 uM using Z-Lys(Ac)-AMC as substrate by fluorimetric method relative to control. Conditions: HDAC1 enzyme, probe Z-Lys(Ac)-AMC.
In data set [3] the target is T3, Histone deacetylase 8 (Homo sapiens, UniProt Q9BY41).
T3 sequence (Q9BY41 whole entry): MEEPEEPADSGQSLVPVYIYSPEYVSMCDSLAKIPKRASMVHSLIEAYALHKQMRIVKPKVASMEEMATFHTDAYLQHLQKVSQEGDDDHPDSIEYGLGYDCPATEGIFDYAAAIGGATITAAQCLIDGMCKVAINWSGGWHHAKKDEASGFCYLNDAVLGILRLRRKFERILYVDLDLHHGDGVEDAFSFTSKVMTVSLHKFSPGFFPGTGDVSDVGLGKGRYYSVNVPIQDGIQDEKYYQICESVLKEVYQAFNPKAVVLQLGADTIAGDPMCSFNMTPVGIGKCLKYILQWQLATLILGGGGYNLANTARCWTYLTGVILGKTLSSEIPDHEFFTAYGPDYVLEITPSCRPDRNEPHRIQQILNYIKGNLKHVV
Briefly: Inhibition of human HDAC8 using Fluor de Lys as substrate by fluorimetric method.

Data set [4] addresses T4, Histone deacetylase 8 (Schistosoma mansoni, UniProt A5H660).
T4 sequence (A5H660 whole entry): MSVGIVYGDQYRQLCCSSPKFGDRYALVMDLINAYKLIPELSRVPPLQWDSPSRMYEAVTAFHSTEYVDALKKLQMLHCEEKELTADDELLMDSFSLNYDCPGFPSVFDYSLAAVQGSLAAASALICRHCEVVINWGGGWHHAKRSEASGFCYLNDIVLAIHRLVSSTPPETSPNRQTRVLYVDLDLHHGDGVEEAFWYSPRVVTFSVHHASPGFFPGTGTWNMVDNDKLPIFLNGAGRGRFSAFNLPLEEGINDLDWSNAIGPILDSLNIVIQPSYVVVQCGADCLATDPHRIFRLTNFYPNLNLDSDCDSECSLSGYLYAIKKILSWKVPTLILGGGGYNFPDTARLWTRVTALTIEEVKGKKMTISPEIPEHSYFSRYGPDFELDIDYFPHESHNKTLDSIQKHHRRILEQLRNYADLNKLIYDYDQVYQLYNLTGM
Description: Inhibition of Schistosoma mansoni HDAC8 using fluorogenic substrate by fluorescence method.

Data set [5] addresses T2, HDAC1 (histone deacetylase 1). Briefly: Inhibition of human HDAC1 using Z-Lys(Ac)-AMC as substrate at 1 uM by fluorimetric method relative to control. The following applies: HDAC1 enzyme, probe Z-Lys(Ac)-AMC.
A further data set deals with Histone deacetylase 1 (Homo sapiens, UniProt Q13547). Description: Inhibition of human HDAC1 (1 to 482 reidue) expressed in sf9 cells using ZMAL(Cbz-(Ac)Lys-AMC as substrate preincubated for 90 mins followed by trypsin addition and measured after 20 mins by fluorimetric method.
Data set [6] deals with T3, Histone deacetylase 8. Briefly: Inhibition of human HDAC8 using Fluor de Lys as substrate incubated for 90 mins by fluorescence method.
In data set [7] the target is T4, Histone deacetylase 8. Briefly: Inhibition of Schistosoma mansoni HDAC8 expressed in Escherichia coli using Fluor de Lys as substrate incubated for 90 mins by fluorescence method.
For data set [8], the target named is T1, Protein deacetylase HDAC6. Briefly: Inhibition of human HDAC6 using ZMAL(Cbz-(Ac)Lys-AMC as substrate preincubated for 90 mins followed by trypsin addition and measured after 20 mins by fluorimetric method.
Data set [9] has as its system Schistosoma mansoni. Description: Antischistosomal activity against adult Schistosoma mansoni assessed as worm death at 10 uM incubated for 120 hrs relative to control. Type of data set: functional.
The subject of another data set is Schistosoma japonicum. Description: Antischistosomal activity against Schistosoma japonicum assessed as worm death at 10 uM incubated for 120 hrs relative to control. Type of data set: functional. The following applies: Schistosoma japonicum.
Data set [10] has as its system Schistosoma mansoni. Briefly: Antischistosomal activity against Schistosoma mansoni Schistosomula assessed as worm death at 10 uM incubated for 24 hrs relative to control. In kind it is functional.
The test system of data set [11] is Schistosoma mansoni. Briefly: Antischistosomal activity against juvenile Schistosoma mansoni assessed as worm death at 10 uM incubated for 120 hrs relative to control. In kind it is functional.
For data set [12], the target named is T5, Thioredoxin glutathione reductase (Schistosoma mansoni, UniProt Q962Y6).
T5 sequence (Q962Y6 whole entry): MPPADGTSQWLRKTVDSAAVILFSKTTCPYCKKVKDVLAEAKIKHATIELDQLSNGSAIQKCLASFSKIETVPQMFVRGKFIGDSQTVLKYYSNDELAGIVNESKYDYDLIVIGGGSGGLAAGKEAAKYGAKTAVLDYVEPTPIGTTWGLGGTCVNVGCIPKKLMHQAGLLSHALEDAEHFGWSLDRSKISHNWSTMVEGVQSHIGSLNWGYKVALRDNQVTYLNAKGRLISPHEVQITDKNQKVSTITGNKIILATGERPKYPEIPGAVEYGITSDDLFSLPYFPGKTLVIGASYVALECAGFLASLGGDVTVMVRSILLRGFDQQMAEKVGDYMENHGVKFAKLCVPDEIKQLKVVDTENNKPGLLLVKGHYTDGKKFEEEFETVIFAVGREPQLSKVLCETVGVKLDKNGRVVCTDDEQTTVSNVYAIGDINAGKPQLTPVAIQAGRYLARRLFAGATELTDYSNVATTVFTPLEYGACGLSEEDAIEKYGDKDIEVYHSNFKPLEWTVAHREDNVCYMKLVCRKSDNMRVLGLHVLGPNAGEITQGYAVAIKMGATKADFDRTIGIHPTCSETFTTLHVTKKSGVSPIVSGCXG
Briefly: Inhibition of Schistosoma mansoni thioredoxin glutathione reductase incubated for 30 mins by DTNB assay.

Data set [13] has as its target T6, Cathepsin B1 isotype 1 (Schistosoma mansoni) (UniProt Q8MNY2).
T6 sequence (whole entry): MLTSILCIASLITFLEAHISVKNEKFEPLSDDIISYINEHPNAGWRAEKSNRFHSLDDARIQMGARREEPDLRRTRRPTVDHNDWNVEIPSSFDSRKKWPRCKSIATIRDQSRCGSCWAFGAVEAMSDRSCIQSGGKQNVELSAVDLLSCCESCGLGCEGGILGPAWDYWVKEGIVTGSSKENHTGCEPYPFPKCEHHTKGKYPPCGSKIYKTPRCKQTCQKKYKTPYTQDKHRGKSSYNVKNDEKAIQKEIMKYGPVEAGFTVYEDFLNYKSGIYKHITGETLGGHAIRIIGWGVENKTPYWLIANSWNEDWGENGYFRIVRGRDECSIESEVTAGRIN
Briefly: Inhibition of Schistosoma mansoni cathepsin B1 using Z-Phe-Arg-aminomethylcoumarin as substrate at 100 uM by fluorescence method relative to control.

Data set [14] deals with Schistosoma mansoni. Briefly: Schistosomicidal-activity against Schistosoma mansoni schistosomula incubated for 48 hrs by Alamar Blue assay. In kind it is functional, organism-based.
Data set [15] has as its system Schistosoma mansoni. Briefly: Schistosomicidal-activity against Schistosoma mansoni schistosomula at 20 uM incubated for 48 hrs by Alamar Blue assay relative to control. In kind it is functional. On the technique in general: The colour change of resazurin is a common sign of viable cells or microbes.
In data set [16] the test system is Schistosoma mansoni. Description: Antischistosomal activity against Schistosoma mansoni infected in Swiss albino mouse assessed as reduction in intestinal tissue egg burden at 20 mg/kg, po administered for 5 days relative to control. Type of data set: functional. Set-up: scale not given: the % may be the effect or the level left. Conditions: time 5 day.
The subject of data set [17] is Schistosoma mansoni. Briefly: Potentiation of praziquantel-induced antischistosomal activity against Schistosoma mansoni infected in Swiss albino mouse assessed as worm burden at 20 mg/kg, po administered for 5 days (reference value: 60%). Type of data set: functional. Conditions: time 5 day.
The subject of data set [18] is Schistosoma mansoni. Briefly: Antischistosomal activity against male Schistosoma mansoni assessed as worm killing effect at 100 uM measured after 24 hrs by phase-contrast microscopy relative to control. In kind it is functional.
Data set [19] concerns Schistosoma mansoni. Briefly: Antischistosomal activity against Schistosoma mansoni infected in Swiss albino mouse assessed as reduction in worm burden at 20 mg/kg, po administered for 5 days relative to control. In kind it is functional. Set-up: scale not given: the % may be the effect or the level left. The following applies: time 5 day.
Data set [20] concerns Schistosoma mansoni. Briefly: Potentiation of praziquantel-induced antischistosomal activity against Schistosoma mansoni infected in Swiss albino mouse assessed as intestinal egg burden at 20 mg/kg, po administered for 5 days (reference value: 67%). Conditions: time 5 day. Type of data set: functional.

Some results are limits rather than exact numbers.

T2 sequence (Q13547 whole entry): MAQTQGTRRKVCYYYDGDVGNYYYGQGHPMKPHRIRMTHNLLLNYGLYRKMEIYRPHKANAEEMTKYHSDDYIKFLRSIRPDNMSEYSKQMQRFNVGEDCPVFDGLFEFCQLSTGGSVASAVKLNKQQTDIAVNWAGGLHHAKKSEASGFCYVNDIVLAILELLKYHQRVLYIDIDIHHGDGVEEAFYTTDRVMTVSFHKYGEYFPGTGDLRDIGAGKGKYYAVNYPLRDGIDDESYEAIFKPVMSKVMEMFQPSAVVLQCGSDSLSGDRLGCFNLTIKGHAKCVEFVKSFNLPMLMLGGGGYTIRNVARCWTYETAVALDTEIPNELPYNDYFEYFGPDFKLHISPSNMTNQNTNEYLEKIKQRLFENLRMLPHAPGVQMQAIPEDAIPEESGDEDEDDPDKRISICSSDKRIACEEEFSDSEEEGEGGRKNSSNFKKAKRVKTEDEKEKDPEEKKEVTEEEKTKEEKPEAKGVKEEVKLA
Sequence of Histone deacetylase 1 (Q13547 whole entry): as above

For `CN1CCN(NC(=O)c2cccc(C(=O)NO)c2)CC1`, the values for the IC50 (in [1]; against Histone deacetylase 8 [3]; against Histone deacetylase 8 [4]) were 7.11 µM, 1.31 µM and 0.75 µM, respectively. Moreover, the inhibition (in general, the change of the read-out against control, counted positive when it falls) at 200 µM in [2] came out at 15.3%. This molecule came in with an inhibition at 1 µM in data set [5] of under 10%.
For `CCCCCCC(=O)N(O)C1CC(=O)C(c2ccc(Cl)cc2)C1=O` (configuration not stated), the IC50 (as a rule, the midpoint of a concentration-inhibition curve) amounted to 3.98 µM on Histone deacetylase 1, 7.69 µM on Histone deacetylase 8 [6], 5.5 µM against Histone deacetylase 8 [7] and 2.65 µM in [8].
With `COc1ccc(C(Nc2cc(C)ccn2)c2ccc3ccc(C)nc3c2O)cc1` (configuration not stated), the mortality (usually the share of the test organisms that died) at 10 µM in the data set with Schistosoma mansoni [9] stood at 53%; with Schistosoma japonicum, 56%; in the data set with Schistosoma mansoni [10], 20%; with Schistosoma mansoni [11], 24%. For the same molecule, in [12], half-maximal inhibition (IC50) was put at 0.13 µM.
In turn, `O=C(c1ccc(CCl)c([N+](=O)[O-])c1)N1CCOCC1` showed an inhibition in data set [13] of under 27%.
Take `O=C(NO)c1cccc(C(=O)NOCc2ccc(Cl)cc2Cl)c1`: the IC50 came out at 5.12 µM in data set [1], 0.63 µM against Histone deacetylase 8 [3] and 0.4 µM on Histone deacetylase 8 [4]. In data set [2], this molecule showed an inhibition at 200 µM of 47.5%. The molecule further returned an inhibition at 1 µM in data set [5] of under 10%.
For the molecule `O=C(/C=C/c1ccccc1Sc1ccc(Cl)cc1)NO`, the IC50 turned out to be 7.7 µM at Histone deacetylase 1, 0.18 µM on Histone deacetylase 8 [6], 0.18 µM on Histone deacetylase 8 [7] and 3.2 µM in data set [8]. Besides, in the data set with Schistosoma mansoni [14], the EC50 – broadly, the concentration giving half of the maximal effect – stood at 11.8 µM. Further, the Activity in the data set with Schistosoma mansoni [15] came to 97%.
Molecule `CCCC(=O)OCCNC(=O)c1ccc(CCl)c([N+](=O)[O-])c1` showed an inhibition in [13] of under 27%.
On to `COc1ccc(-c2nc(-c3ccccc3OC)[nH]c2-c2ccc(OC)cc2)cc1`, for which the Activity is on record as under 17% in the data set on Schistosoma mansoni [16]; 88% in the data set on Schistosoma mansoni [17]; 33% in the data set on Schistosoma mansoni [18]; under 17% in the data set on Schistosoma mansoni [19]; 83% in the data set with Schistosoma mansoni [20].
